Broadly, the Ki is the equilibrium dissociation constant of an inhibitor or competing ligand from its target. By IC50 is commonly meant the point on the concentration scale where inhibition reaches its midpoint. One may read the Km as the substrate concentration at which the rate is half of its maximum.

Peptide text beside a SMILES is read from it.

Here are results for 5 molecules from ChEMBL document CHEMBL2074542, “Differential recognition of beta -lactam antibiotics by intestinal and renal peptide transporters, PEPT 1 and PEPT 2” (J Biol Chem, 1995).

For data set [1], the target named is T1, Solute carrier family 15 member 2 (Homo sapiens, UniProt Q16348).
T1 sequence (Q16348 whole entry): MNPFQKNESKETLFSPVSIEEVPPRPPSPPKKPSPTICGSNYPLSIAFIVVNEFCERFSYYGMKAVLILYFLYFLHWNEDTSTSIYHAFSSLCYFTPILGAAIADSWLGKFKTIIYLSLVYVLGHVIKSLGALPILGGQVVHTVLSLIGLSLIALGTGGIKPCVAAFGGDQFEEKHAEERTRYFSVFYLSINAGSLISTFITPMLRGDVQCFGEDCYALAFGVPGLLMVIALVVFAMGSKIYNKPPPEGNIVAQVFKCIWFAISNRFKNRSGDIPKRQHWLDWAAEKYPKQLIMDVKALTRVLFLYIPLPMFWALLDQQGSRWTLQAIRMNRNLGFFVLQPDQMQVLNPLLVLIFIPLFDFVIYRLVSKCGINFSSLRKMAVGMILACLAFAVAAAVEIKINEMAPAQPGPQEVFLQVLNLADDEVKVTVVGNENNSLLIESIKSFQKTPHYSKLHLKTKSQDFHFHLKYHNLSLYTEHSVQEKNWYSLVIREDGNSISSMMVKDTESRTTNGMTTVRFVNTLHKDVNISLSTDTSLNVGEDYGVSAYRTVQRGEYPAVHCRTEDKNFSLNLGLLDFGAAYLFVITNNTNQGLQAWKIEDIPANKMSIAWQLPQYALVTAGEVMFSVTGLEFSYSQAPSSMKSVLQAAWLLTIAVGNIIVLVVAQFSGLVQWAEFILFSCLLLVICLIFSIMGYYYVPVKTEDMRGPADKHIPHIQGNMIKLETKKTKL
Briefly: TP_TRANSPORTER: inhibition of Gly-Sar uptake in SKPT cells. It counts as functional, cell-based.

Data set [2] has as its target T2, Solute carrier family 15 member 1 (Homo sapiens, UniProt P46059).
T2 sequence (P46059 whole entry): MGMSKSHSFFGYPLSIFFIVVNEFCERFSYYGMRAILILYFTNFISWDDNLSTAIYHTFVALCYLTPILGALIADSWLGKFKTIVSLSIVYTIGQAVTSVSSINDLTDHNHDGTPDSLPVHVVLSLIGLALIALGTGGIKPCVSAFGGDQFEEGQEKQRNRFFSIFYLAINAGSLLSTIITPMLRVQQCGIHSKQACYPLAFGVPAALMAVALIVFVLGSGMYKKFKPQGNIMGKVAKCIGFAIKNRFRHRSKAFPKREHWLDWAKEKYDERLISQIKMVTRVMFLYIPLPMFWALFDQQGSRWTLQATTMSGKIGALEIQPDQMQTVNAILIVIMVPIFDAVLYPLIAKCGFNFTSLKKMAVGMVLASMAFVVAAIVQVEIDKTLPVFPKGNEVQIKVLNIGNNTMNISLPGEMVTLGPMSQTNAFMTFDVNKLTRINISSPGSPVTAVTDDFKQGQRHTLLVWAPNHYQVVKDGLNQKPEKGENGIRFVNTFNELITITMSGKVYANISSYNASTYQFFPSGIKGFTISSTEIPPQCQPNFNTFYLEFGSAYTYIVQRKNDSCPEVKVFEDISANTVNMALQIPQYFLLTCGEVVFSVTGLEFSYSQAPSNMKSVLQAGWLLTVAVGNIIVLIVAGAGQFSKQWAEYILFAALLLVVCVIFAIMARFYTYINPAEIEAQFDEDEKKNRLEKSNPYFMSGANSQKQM
Briefly: TP_TRANSPORTER: inhibition of Gly-Sar uptake (Gly-Sar: 5 uM) in Caco-2 cells. It counts as functional, cell-based.

Data set [3] deals with T2, Solute carrier family 15 member 1.
Data set [4] addresses T1, Solute carrier family 15 member 2. Briefly: TP_TRANSPORTER: inhibition of Gly-Sar uptake (Gly-Sar: 50 uM) in PEPT2-expressing HeLa cells. It counts as functional, cell-based.
The target in data set [5] is T3, Solute carrier family 15 member 2 (Homo sapiens) (UniProt Q16348).
T3 sequence (whole entry): T1 sequence (Q16348 whole entry)
Briefly: TP_TRANSPORTER: uptake in PEPT2-expressing HeLa cells. It counts as functional, cell-based.

Data set [6] addresses T1, Solute carrier family 15 member 2. Briefly: TP_TRANSPORTER: inhibition of Cephalexin uptake in SKPT cells. The format is functional, cell-based.
Substrate in data set [7]: CC1=C(C(=O)O)N2C(=O)[C@@H](NC(=O)[C@H](N)c3ccccc3)[C@H]2SC1
Briefly: TP_TRANSPORTER: uptake in SKPT cells. It counts as functional, cell-based.

`CC1=C(C(=O)O)N2C(=O)[C@@H](NC(=O)[C@H](N)c3ccc(O)cc3)[C@H]2SC1` [CEFADROXIL]: affinity in data set [1] was put at a Ki of 2.8 µM. Also, the results for the IC50 in data set [2], in data set [3] and in data set [4] were 5400 µM, 870 µM and 66 µM, respectively.

In the case of `CC1=C(C(=O)O)N2C(=O)[C@@H](NC(=O)[C@H](N)c3ccccc3)[C@H]2SC1` [CEPHALEXIN ANHYDROUS], the affinity in data set [1], expressed as Ki, was 68.2 µM. The Activity entry in data set [5] is “substrate [+]”.

In the case of `CC1(C)S[C@@H]2[C@H](NC(=O)C3(N)CCCCC3)C(=O)N2[C@H]1C(=O)O` [CYCLACILLIN], the Ki in data set [1] stood at 39.1 µM. In addition, the concentration for half-maximal inhibition (IC50) worked out at 600 µM in data set [2], 350 µM in data set [3] and 610 µM in data set [4].

With `CN(CC(=O)O)C(=O)CN` [GLYCYLSARCOSINE] (HELM PEPTIDE1{G.[Sar]}$$$$V2.0), the Ki in data set [6] amounted to 64 µM.

B1: Solute carrier family 15 member 2 (Rattus norvegicus), Q63424 (protein)
chain: MNPFQKNESKETLFSPVSTEEMLPRPPSPPKKSPPKIFGSSYPVSIAFIVVNEFCERFSYYGMKAVLTLYFLYFLHWNEDTSTSVYHAFSSLCYFTPILGAAIADSWLGKFKTIIYLSLVYVLGHVFKSLGAIPILGGKMLHTILSLVGLSLIALGTGGIKPCVAAFGGDQFEEEHAEARTRYFSVFYLAINAGSLISTFITPMLRGDVKCFGQDCYALAFGVPGLLMVLALVVFAMGSKMYRKPPPEGNIVAQVIKCIWFALCNRFRNRSGDLPKRQHWLDWAAEKYPKHLIADVKALTRVLFLYIPLPMFWALLDQQGSRWTLQANKMNGDLGFFVLQPDQMQVLNPFLVLIFIPLFDLVIYRLISKCRINFSSLRKMAVGMILACLAFAVAALVETKINGMIHPQPASQEIFLQVLNLADGDVKVTVLGSRNNSLLVESVSSFQNTTHYSKLHLEAKSQDLHFHLKYNSLSVHNDHSVEEKNCYQLLIHQDGESISSMLVKDTGIKPANGMAAIRFINTLHKDLNISLDTDAPLSVGKDYGVSAYRTVLRGKYPAVHCETEDKVFSLDLGQLDFGTTYLFVITNITSQGLQAWKAEDIPVNKLSIAWQLPQYVLVTAAEVMFSVTGLEFSYSQAPSSMKSVLQAAWLLTVAVGNIIVLVVAQFSGLAQWAEFVLFSCLLLVVCLIFSVMAYYYVPLKSEDTREATDKQIPAVQGNMINLETKNTRL
For the molecule B1, in data set [7], the Michaelis-Menten constant (Km) was determined as 49 µM.
